Experimental data: PubChem BioAssay AID1648 (Sanford-Burnham Center for Chemical Genomics, 2009)
Active and inactive are the calls of the source. How the calls were made is not given here.

These molecules were tested against Serine/threonine-protein kinase mTOR (Homo sapiens) (UniProt P42345) (assay: mTOR FRB domain ligand binding – biophysical, NMR (AID 1648)). Conditions: NMR binding to FRB domain, chemical shift.
Sequence of Serine/threonine-protein kinase mTOR (Homo sapiens) (P42345 2015-2114): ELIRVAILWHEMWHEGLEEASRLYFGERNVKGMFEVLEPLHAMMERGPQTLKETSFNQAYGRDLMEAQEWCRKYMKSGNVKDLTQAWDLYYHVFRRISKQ
`Cc1ccc(CNc2ccc(O)cc2)cc1` was tested, and the Kd was > 4 mM (inactive). For `NC(=O)C1CCCN1S(=O)(=O)c1ccc(F)cc1` (centres undefined), the Kd was > 4 mM (inactive). For `COC1(C)CCC2OC2(C)CCC2C1CC2(C)C` (centres undefined), the Kd was > 4 mM (inactive). With `Cc1ccc(NC(=O)c2ccccc2)s1` the Kd was > 4 mM (inactive). With `COC(=O)CC1C(C)(C)C(OC(C)=O)[C@@H]2[C@@H](OC(C)=O)[C@]34O[C@@]2(O)[C@]1(C)C3CC[C@]1(C)C4=CC(=O)O[C@H]1c1ccoc1` (some centres undefined) the Kd was > 4 mM (inactive). For `C[C@H]1[C@H](C)CC[C@]2(CO)CC[C@]3(C)C(=CCC4[C@@]5(C)CC[C@H](O)C(C)(C)C5CC[C@]43C)[C@H]12` (some centres undefined), the Kd was > 4 mM (inactive). In the case of `CC1CN(Cc2ccccn2)CCC1=O` (centres undefined), the Kd is reported as > 4 mM (inactive). `Nc1ncnc(NC2CCS(=O)(=O)C2)c1[N+](=O)[O-]` (centres undefined) was tested, and the Kd was > 4 mM (inactive). With `Cc1ncc(CC(=O)O)s1` the Kd was > 4 mM (inactive). With `c1coc(CNc2nc(-c3ccncc3)cs2)c1` the Kd was > 4 mM (inactive). With `CC(=O)Nc1ccn(-c2ccccc2)n1` the Kd was > 4 mM (inactive). With `Cc1cc(=O)cc(C)n1-c1ccccc1N1CCOCC1` the Kd was > 4 mM (inactive). `O=c1cc(-c2ccc(O)cc2)oc2cc(O[C@@H]3O[C@H](CO)[C@@H](O)[C@H](O)[C@H]3O[C@@H]3OC[C@](O)(CO)[C@H]3O)cc(O)c12` was tested, and the Kd was > 4 mM (inactive). In the case of `CNC(=O)c1ccccc1N`, the Kd is reported as > 4 mM (inactive). For `Nc1nnc(Cc2ccc(Cl)cc2)s1`, the Kd was > 4 mM (inactive). In the case of `CC(O)c1nc2ccccc2[nH]1` (centres undefined), the Kd is reported as > 4 mM (inactive). In the case of `CCCc1cc2c(c(NC(C)=O)n1)c(=O)oc1ccccc12`, the Kd is reported as > 4 mM (inactive). With `CC(CCC(=O)O)[C@H]1CCC2C3CC[C@@H]4CCCC[C@]4(C)C3CC[C@@]21C` (some centres undefined) the Kd was > 4 mM (inactive). For `COc1cc2c(cc1O)CC1c3c(cc(O)c(OC)c3-2)CCN1C` (centres undefined), the Kd was > 4 mM (inactive). For `CC1=NN2C(=N)/C(=C\c3cccs3)C(=O)N=C2S1`, the Kd was > 4 mM (inactive). For `CC(=O)NC1(NC(C)=O)CCN(C)CC1`, the Kd was > 4 mM (inactive). With `COc1cc2c(cc1OC)[C@@H]1C(=O)c3ccc4c(c3O[C@@H]1CO2)CC(C(C)C)O4` (some centres undefined) the Kd was > 4 mM (inactive). `S=c1ccc(N2CCCCC2)n[nH]1` was tested, and the Kd was > 4 mM (inactive). In the case of `CCC1C(=O)OCC1Cc1cncn1C` (centres undefined), the Kd is reported as > 4 mM (inactive). `Nc1ccc(NS(=O)(=O)c2ccc(N)cc2)cc1` was tested, and the Kd was > 4 mM (inactive). In the case of `O=c1c2ccccc2nc2n1CCS2`, the Kd is reported as > 4 mM (inactive). With `CC(O)(C(=O)O)c1ccccc1` (centres undefined) the Kd was > 4 mM (inactive). For `c1ccn(Cc2ccncc2)c1`, the Kd was > 4 mM (inactive). For `O=C(O)CNC(=O)c1ccc([N+](=O)[O-])cc1`, the Kd was > 4 mM (inactive). In the case of `CC1(C)Cc2cccc(CO)c2O1`, the Kd is reported as > 4 mM (inactive). For `O=C1C2C3C=CC(O3)C2C(=O)N1c1ccccc1` (centres undefined), the Kd was > 4 mM (inactive). `NC1=NC(=O)CC(C(=O)Nc2ccccc2)S1` (centres undefined) was tested, and the Kd was > 4 mM (inactive). In the case of `COc1ccc(O)c(-c2cn[nH]c2-c2cccs2)c1`, the Kd is reported as > 4 mM (inactive). In the case of `CN1CN/C(=N\[N+](=O)[O-])N(c2ccccc2)C1`, the Kd is reported as > 4 mM (inactive). With `CCOc1cccc(C(=O)c2ccc(O)c(O)c2O)c1` the Kd was > 4 mM (inactive). With `CC1=CC(C)C(C(=O)O)C(C(=O)N2CCN(C)CC2)C1` (centres undefined) the Kd was > 4 mM (inactive). With `NC1=NC(=O)C(Cc2ccccc2)S1` (centres undefined) the Kd was > 4 mM (inactive). For `CN(C(=O)c1cc2cccnc2n(C)c1=O)c1ccccc1`, the Kd was > 4 mM (inactive). With `O=c1c2c(nc3nc(Cc4ccccc4)[nH]n13)CCC2` the Kd was > 4 mM (inactive). With `NCCc1ccc(S(N)(=O)=O)cc1` the Kd was > 4 mM (inactive). In the case of `Cc1ccc(C)n1NC(=O)c1ccco1`, the Kd is reported as > 4 mM (inactive). For `Cc1nnc(C)n1/N=C/c1cccs1`, the Kd was > 4 mM (inactive). For `O=C1CS/C(=N/S(=O)(=O)c2ccccc2)N1`, the Kd was > 4 mM (inactive). `CC(=O)Nc1c(Cl)cnn(-c2ccccc2)c1=O` was tested, and the Kd was > 4 mM (inactive). In the case of `Cn1nc(C(=O)NCc2cccnc2)c2ccccc2c1=O`, the Kd is reported as > 4 mM (inactive). `O=C1CSC(=Nc2cccc(C(=O)O)c2)N1` was tested, and the Kd was > 4 mM (inactive). `CC1CCC2(OC1)OC1CC3C4CCC5C[C@@H](O)CCC5(C)C4=CCC3(C)C1[C@@H]2C` (some centres undefined) was tested, and the Kd was > 4 mM (inactive). In the case of `Cc1onc(-c2c(F)cccc2Cl)c1C(N)=O`, the Kd is reported as > 4 mM (inactive). `NCc1ccccc1N1CCCCC1` was tested, and the Kd was > 4 mM (inactive). `O=C(O)c1cccc2c1OCC2` was tested, and the Kd was > 4 mM (inactive). In the case of `O=C(O)c1c[nH]c2ccccc12`, the Kd is reported as > 4 mM (inactive). In the case of `Cc1nn2c(-c3ccncc3)nnc2c2ccccc12`, the Kd is reported as > 4 mM (inactive). For `NC(=S)NC1CCS(=O)(=O)C1` (centres undefined), the Kd was > 4 mM (inactive). In the case of `COC(=O)C[C@H]1C(C)(C)C(=O)[C@@H]2CC3C4=CC(=O)O[C@@H](c5ccoc5)[C@]4(C)CCC3C1(C)C2=O` (some centres undefined), the Kd is reported as > 4 mM (inactive). `O=C(Nc1ccccc1)C(=O)NC1CC1` was tested, and the Kd was > 4 mM (inactive). With `O=C(c1cnsn1)N1CCN(c2ccccn2)CC1` the Kd was > 4 mM (inactive). With `Cc1c(C)n2c(SCC(N)=O)nnc2[nH]c1=O` the Kd was > 4 mM (inactive). For `O=C(OCc1c(F)cccc1Cl)c1cnccn1`, the Kd was > 4 mM (inactive). `NCc1cccc(-n2cccc2)c1` was tested, and the Kd was > 4 mM (inactive). For `c1ccc(-c2nnc3sc(-c4ccncc4)nn23)cc1`, the Kd was > 4 mM (inactive). In the case of `Cc1cccc(N2C(=O)CCC2=O)n1`, the Kd is reported as > 4 mM (inactive). With `Cn1c(-c2ccccc2F)n[nH]c1=S` the Kd was > 4 mM (inactive). For `NC(=O)Cc1nc(-c2ccccc2)cs1`, the Kd was > 4 mM (inactive). `O=C(c1ccc(F)cc1)C1CCNCC1` was tested, and the Kd was > 4 mM (inactive). In the case of `CC1(C)CN=C(Nc2nc3ccccc3s2)S1`, the Kd is reported as > 4 mM (inactive). With `COc1ccc(C(N)=O)cc1NC(C)=O` the Kd was > 4 mM (inactive). In the case of `CN1C(=O)/C(=C\c2ccc[nH]2)SC1=S`, the Kd is reported as > 4 mM (inactive). In the case of `COc1ccc(-c2coc3c(OC)c(OC)cc(OC)c3c2=O)cc1`, the Kd is reported as > 4 mM (inactive). `CN1CCN(C(=O)c2ccco2)CC1` was tested, and the Kd was > 4 mM (inactive). In the case of `CC(=O)Oc1ccccc1N1C(=O)C=CC1=O`, the Kd is reported as > 4 mM (inactive). For `OCc1ccc(N2CCOCC2)nc1`, the Kd was > 4 mM (inactive). In the case of `Nc1ncnc(Cl)c1[N+](=O)[O-]`, the Kd is reported as > 4 mM (inactive). With `CC(=O)N/N=C(\C)c1cccc(N)c1` the Kd was > 4 mM (inactive). `CN(C)C(=O)c1ccc(-c2n[nH]c(=O)c3ccccc23)cc1` was tested, and the Kd was > 4 mM (inactive). `C[C@@H]1CC[C@@]23CCC4(C)[C@@](C=CC5[C@@]6(C)CC[C@H](O)C(C)(C)C6CC[C@]54C)(OC2=O)C3[C@H]1C` (some centres undefined) was tested, and the Kd was > 4 mM (inactive). `O=C(O)C1CN(Cc2ccccc2)CCO1` (centres undefined) was tested, and the Kd was > 4 mM (inactive). `COC(=O)c1ccc(NC(=O)CC2NCCNC2=O)cc1` (centres undefined) was tested, and the Kd was > 4 mM (inactive). For `NC1=NC(=O)/C(=C\c2ccccc2)S1`, the Kd was > 4 mM (inactive). `COc1cc(OC)c2ccc(=O)oc2c1` was tested, and the Kd was > 4 mM (inactive). With `COc1ccc(-c2nc(N)n(C(C)=O)n2)cc1` the Kd was > 4 mM (inactive). `CC(=O)Nc1cccc(NC(=O)c2cccnc2)c1` was tested, and the Kd was > 4 mM (inactive). For `Cc1c(C(=O)N2CCOCC2)oc2c1C(=O)CC(C)(C)C2`, the Kd was > 4 mM (inactive). For `CC(C)NS(=O)(=O)c1ccc(N)cc1`, the Kd was > 4 mM (inactive). In the case of `NCCc1c[nH]c2ccccc12`, the Kd is reported as > 4 mM (inactive).
